Among the data in PubChem BioAssay (NCI) are TGI values, retold here.

Some test systems named below: CAKI-1 renal; HL-60(TB) leukemia; NCI-H23 lung; NCI-H522 lung; NCI/ADR-RES ovarian; OVCAR-3 ovarian; OVCAR-8 ovarian; PC-3 prostate; RPMI-8226 leukemia; SF-268 CNS; SF-295 CNS; SF-539 CNS; SK-MEL-2 melanoma; SK-MEL-5 melanoma; SR leukemia; TK-10 renal; U251 CNS; UACC-257 melanoma; MOLT-4 leukemia.
What all share (assay): growth of human tumour cells (NCI), 48 h

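Five concentrations, 48 hours, 96-well plates. TGI: total growth inhibition.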

As for `CC1(C)[C@@H]2C[C@H]1C(Cc1ccc(C[C@H]3c4cc(-c5ccccn5)ncc4[C@H]4C[C@@H]3C4(C)C)cc1)c1cc(-c3ccccn3)ncc12` (some centres undefined), the TGI in the test on CAKI-1 renal is more than 100 µM; in the test on HL-60(TB) leukemia, 2.28 µM; in the test with NCI-H23 lung, 37 µM; with NCI-H522 lung, more than 100 µM; in the test on NCI/ADR-RES ovarian it was 22.2 µM; with OVCAR-3 ovarian, 18.8 µM. For the same compound, the TGI in the test on OVCAR-8 ovarian is 15.8 µM; in the test with PC-3 prostate it was 22.8 µM; in the test on RPMI-8226 leukemia, 70 µM; in the test with SF-268 CNS, 28.6 µM; in the test on SF-295 CNS, more than 100 µM; in the test on SF-539 CNS it was 7.13 µM. Further, the TGI was more than 100 µM in the test with SK-MEL-2 melanoma; 7.81 µM in the test on SK-MEL-5 melanoma; 5.02 µM with SR leukemia; more than 100 µM in the test on TK-10 renal; 19.7 µM with U251 CNS; more than 100 µM in the test with UACC-257 melanoma.
As to `COC(=O)C(/C(=N/N)C(=O)Nc1cc(Cl)c(Cl)cc1Cl)c1nc2ccc(Cl)cc2[nH]c1=O` (centres undefined), the TGI with CAKI-1 renal, in the test with HL-60(TB) leukemia, in the test with NCI-H23 lung, in the test on NCI-H522 lung, with NCI/ADR-RES ovarian and with OVCAR-3 ovarian was more than 100 µM each time. Besides, the TGI with OVCAR-8 ovarian, in the test on PC-3 prostate, in the test on RPMI-8226 leukemia, in the test with SF-268 CNS, in the test with SF-295 CNS and in the test with SF-539 CNS was more than 100 µM throughout. In addition, the TGI in the test on SK-MEL-2 melanoma, with SK-MEL-5 melanoma, in the test with SR leukemia, with TK-10 renal, in the test on U251 CNS and in the test on UACC-257 melanoma was more than 100 µM throughout.
Consider `C=CCNC(=O)/C(Cc1cc(Br)c(OC)c(Br)c1O)=N\O`, for which the TGI in the test with CAKI-1 renal was 33.7 µM; in the test on HL-60(TB) leukemia, 5.43 µM; in the test on MOLT-4 leukemia, more than 100 µM; in the test with NCI-H23 lung, 18.1 µM; in the test on NCI-H522 lung it was 6.07 µM; in the test with NCI/ADR-RES ovarian it was 11.4 µM. For the same compound, the TGI was 10.7 µM in the test on OVCAR-3 ovarian; 20.9 µM in the test on OVCAR-8 ovarian; more than 100 µM in the test with PC-3 prostate; more than 100 µM in the test on RPMI-8226 leukemia; 15.7 µM with SF-268 CNS; 21.5 µM in the test on SF-295 CNS. For the same compound, the TGI is 14.6 µM in the test with SF-539 CNS; 44.5 µM in the test with SK-MEL-2 melanoma; 11.6 µM in the test with SK-MEL-5 melanoma; more than 100 µM with SR leukemia; 64.8 µM in the test with TK-10 renal; 39.8 µM in the test with U251 CNS. The same compound gave a TGI in the test on UACC-257 melanoma of 27.1 µM.
`CC(=N/NC(=S)Nc1c(C)n(C)n(-c2ccccc2)c1=O)/C(C)=N\NC(=S)Nc1c(C)n(C)n(-c2ccccc2)c1=O`: the TGI in the test on CAKI-1 renal, in the test on HL-60(TB) leukemia, in the test on MOLT-4 leukemia, in the test with NCI-H23 lung, with NCI-H522 lung and in the test on NCI/ADR-RES ovarian was more than 100 µM each time. Further, the TGI with OVCAR-3 ovarian, in the test on OVCAR-8 ovarian, with PC-3 prostate, in the test with SF-268 CNS, in the test with SF-295 CNS and with SF-539 CNS was more than 100 µM in each case. Further, the TGI with SK-MEL-2 melanoma, with SK-MEL-5 melanoma, in the test with SR leukemia, in the test with TK-10 renal, in the test with U251 CNS and in the test on UACC-257 melanoma was more than 100 µM throughout.
Regarding `Cn1c2ccccc2c(=O)c2c(O)cc3c(c21)C=CC1(CCCC1)O3`, the TGI in the test with CAKI-1 renal, in the test with HL-60(TB) leukemia, in the test on MOLT-4 leukemia, in the test with NCI-H23 lung, in the test on NCI-H522 lung and in the test on NCI/ADR-RES ovarian was more than 100 µM throughout. Moreover, the TGI with OVCAR-3 ovarian, in the test with OVCAR-8 ovarian, with PC-3 prostate, in the test on RPMI-8226 leukemia, in the test on SF-268 CNS and in the test on SF-295 CNS was more than 100 µM throughout. The TGI with SF-539 CNS, with SK-MEL-2 melanoma, in the test on SK-MEL-5 melanoma, in the test on SR leukemia, in the test with TK-10 renal and in the test with U251 CNS was more than 100 µM each time. The compound also registered a TGI with UACC-257 melanoma of more than 100 µM.
Take `CC1=NN2C(=O)CC(=O)N=C2S1`: the TGI in the test on CAKI-1 renal, with HL-60(TB) leukemia, in the test on MOLT-4 leukemia, with NCI-H23 lung, in the test on NCI-H522 lung and in the test with NCI/ADR-RES ovarian was more than 100 µM in each case. The TGI in the test with OVCAR-3 ovarian, in the test on OVCAR-8 ovarian, with PC-3 prostate, with RPMI-8226 leukemia, in the test on SF-268 CNS and with SF-295 CNS was more than 100 µM in each case. Moreover, the TGI with SF-539 CNS, with SK-MEL-2 melanoma, with SK-MEL-5 melanoma, with SR leukemia, in the test with TK-10 renal and with U251 CNS was more than 100 µM in each case. Moreover, the TGI in the test with UACC-257 melanoma was more than 100 µM.
As for `Cc1cc(S(=O)(=O)Nc2nc(N)nc(N3CCOCC3)n2)c(SCC(=O)O)cc1Cl`, the TGI in the test on CAKI-1 renal, in the test with HL-60(TB) leukemia, in the test on MOLT-4 leukemia, in the test with NCI-H23 lung, with NCI-H522 lung and in the test on NCI/ADR-RES ovarian was more than 10 µM throughout. Moreover, the TGI with OVCAR-3 ovarian, in the test on OVCAR-8 ovarian, in the test on PC-3 prostate, with RPMI-8226 leukemia, with SF-268 CNS and in the test with SF-295 CNS was more than 10 µM each time. The TGI with SF-539 CNS, with SK-MEL-2 melanoma, with SK-MEL-5 melanoma, in the test on SR leukemia, with TK-10 renal and in the test on U251 CNS was more than 10 µM throughout. In the test with UACC-257 melanoma, this compound came in with a TGI of more than 10 µM.
Turning to `Cc1cnc2[nH]c(-c3ccc(F)cc3)cc(=O)c2c1`, the TGI in the test with CAKI-1 renal is more than 100 µM; in the test on HL-60(TB) leukemia, 20.4 µM; in the test on MOLT-4 leukemia, more than 91.5 µM; in the test with NCI-H23 lung it was more than 100 µM; in the test on NCI-H522 lung it was 50.4 µM; in the test on NCI/ADR-RES ovarian, more than 87.5 µM. The TGI is more than 78.3 µM in the test with OVCAR-3 ovarian; more than 100 µM with OVCAR-8 ovarian; more than 100 µM with PC-3 prostate; more than 73.3 µM in the test on RPMI-8226 leukemia; more than 100 µM with SF-268 CNS; 99 µM with SF-295 CNS. For the same compound, the TGI in the test on SF-539 CNS was more than 100 µM; in the test with SK-MEL-2 melanoma, more than 82.1 µM; in the test on SK-MEL-5 melanoma it was more than 100 µM; in the test with SR leukemia it was more than 61.5 µM; in the test with TK-10 renal it was more than 100 µM; with U251 CNS it was more than 91.8 µM. Also, the TGI in the test with UACC-257 melanoma was more than 100 µM.
`COc1cc(/C=C2/SC(c3ccccc3)N(c3ccc(Cl)cc3)C2=O)cc(OC)c1OC` (centres undefined): the TGI in the test on CAKI-1 renal, with HL-60(TB) leukemia, with MOLT-4 leukemia, with NCI-H23 lung, in the test with NCI-H522 lung and in the test with NCI/ADR-RES ovarian was more than 100 µM each time. The TGI in the test on OVCAR-3 ovarian, in the test on OVCAR-8 ovarian, with PC-3 prostate, in the test on RPMI-8226 leukemia, in the test on SF-268 CNS and in the test on SF-295 CNS was more than 100 µM in each case. For the same compound, the TGI in the test on SF-539 CNS, with SK-MEL-2 melanoma, with SR leukemia, with TK-10 renal, in the test on U251 CNS and with UACC-257 melanoma was more than 100 µM each time.
Consider `COC(=O)/C(C#N)=C1\NC(=O)CC(c2ccccc2)C1C#N` (centres undefined), for which the TGI in the test with CAKI-1 renal, with HL-60(TB) leukemia, in the test with MOLT-4 leukemia, with NCI-H522 lung, in the test with NCI/ADR-RES ovarian and in the test with OVCAR-3 ovarian was more than 100 µM throughout. For the same compound, the TGI with OVCAR-8 ovarian, in the test with PC-3 prostate, with RPMI-8226 leukemia, in the test with SF-268 CNS, in the test with SF-295 CNS and with SF-539 CNS was more than 100 µM in each case. Further, the TGI in the test on SK-MEL-2 melanoma, with SK-MEL-5 melanoma, in the test on SR leukemia, with TK-10 renal and with UACC-257 melanoma was more than 100 µM in each case.
For `CN(C)c1ncnc2c1ncn2C1C=CC(COS(N)(=O)=O)C1` (centres undefined), the TGI in the test on CAKI-1 renal, in the test on HL-60(TB) leukemia, in the test on MOLT-4 leukemia, with NCI-H23 lung, in the test with NCI-H522 lung and in the test on NCI/ADR-RES ovarian was more than 100 µM in each case. Further, the TGI in the test on OVCAR-3 ovarian, in the test with OVCAR-8 ovarian, with PC-3 prostate, in the test with RPMI-8226 leukemia, in the test with SF-268 CNS and in the test with SF-295 CNS was more than 100 µM in each case. Moreover, the TGI in the test with SF-539 CNS, in the test on SK-MEL-2 melanoma, in the test on SK-MEL-5 melanoma, with SR leukemia, in the test on U251 CNS and with UACC-257 melanoma was more than 100 µM in each case.
As to `CC1(C)C=C(/C=N/Nc2ccc(Br)cc2)C(C#N)=C(O)C1(C#N)C#N`, the TGI with CAKI-1 renal is 95.4 µM; with HL-60(TB) leukemia, 88.1 µM; with MOLT-4 leukemia, 89.8 µM; in the test with NCI-H23 lung it was more than 100 µM; in the test on NCI-H522 lung, more than 100 µM; in the test with NCI/ADR-RES ovarian, more than 100 µM. Moreover, the TGI in the test with OVCAR-3 ovarian is more than 100 µM; with OVCAR-8 ovarian it was more than 100 µM; with PC-3 prostate, 63.9 µM; in the test on RPMI-8226 leukemia, more than 100 µM; in the test with SF-268 CNS it was more than 100 µM; in the test with SF-295 CNS, more than 100 µM. Also, the TGI is more than 100 µM with SF-539 CNS; more than 100 µM in the test with SK-MEL-5 melanoma; 75.5 µM in the test with SR leukemia; more than 100 µM with TK-10 renal; more than 100 µM in the test on UACC-257 melanoma.
